Assay results from ChEMBL document CHEMBL5370558, “Modifications of geldanamycin via CuAAC altering affinity to chaperone protein Hsp90 and cytotoxicity” (Eur J Med Chem, 2023).

How the values were obtained:
SK-BR-3 = assay: Anticancer activity against human SK-BR-3 cells assessed as cell growth inhibition incubated for 72 hrs by SRB assay; assay type: functional, cell-based
SK-OV-3 = assay: Anticancer activity against human SK-OV-3 cells assessed as cell growth inhibition incubated for 72 hrs by SRB assay; assay type: functional, cell-based
PC-3 = assay: Anticancer activity against human PC-3 cells assessed as cell growth inhibition incubated for 72 hrs by SRB assay; assay type: functional, cell-based
[1] = Cytotoxicity against human HDF cells assessed as cell growth inhibition incubated for 72 hrs by SRB assay; assay type: toxicity, cell-based; details: HDF cells (normal human dermal fibroblasts, NHDF)
[2] = Selectivity index, ratio of IC50 for cytotoxicity against human HDF cells to IC50 for anticancer activity against human SK-BR-3 cells; assay type: toxicity, cell-based; details: HDF cells versus SK-BR-3 cells, read-out: Ratio IC50
[3] = Selectivity index, ratio of IC50 for cytotoxicity against human HDF cells to IC50 for anticancer activity against human SK-OV-3 cells; assay type: cell-based; details: HDF cells versus SK-OV-3 cells, read-out: Ratio IC50
[4] = Selectivity index, ratio of IC50 for cytotoxicity against human HDF cells to IC50 for anticancer activity against human PC-3 cells; assay type: toxicity, cell-based; details: HDF cells versus PC-3 cells, read-out: Ratio IC50

Compound	IC50 (SK-BR-3; Homo sapiens, SK-BR-3, 72 h) [nM]	IC50 (SK-OV-3; Homo sapiens, SK-OV-3, 72 h) [nM]	IC50 (PC-3; Homo sapiens, PC-3, 72 h) [nM]	IC50 at 72 h [1] [nM]	selectivity ratio [2]	selectivity ratio [3]	selectivity ratio [4]	IC50 (SK-BR-3; sk-br-3) [nM]	IC50 (SK-OV-3; sk-ov-3) [nM]	IC50 (PC-3; pc-3) [nM]
CO[C@H]1/C=C\C=C(/C)C(=O)NC2=CC(=O)C(NCc3cn([C@@H]4O[C@H](COC(C)=O)[C@H](OC(C)=O)[C@H](OC(C)=O)[C@H]4OC(C)=O)nn3)=C(C[C@@H](C)C[C@H](OC)[C@H](O)[C@@H](C)/C=C(\C)[C@@H]1OC(N)=O)C2=O	770	780	910	970	1.29	1.24	1.07	–	–	–
CO[C@H]1/C=C\C=C(/C)C(=O)NC2=CC(=O)C(NCc3cn(CC4CCOCC4)nn3)=C(C[C@@H](C)C[C@H](OC)[C@H](O)[C@@H](C)/C=C(\C)[C@@H]1OC(N)=O)C2=O	960	920	970	1840	1.92	2	1.9	–	–	–
C#CCNC1=C2C[C@@H](C)C[C@H](OC)[C@H](O)[C@@H](C)/C=C(\C)[C@H](OC(N)=O)[C@@H](OC)/C=C\C=C(/C)C(=O)NC(=CC1=O)C2=O	4010	4230	4090	7360	1.84	1.74	1.8	–	–	–
CO[C@H]1/C=C\C=C(/C)C(=O)NC2=CC(=O)C(NCc3cn(Cc4ccccc4I)nn3)=C(C[C@@H](C)C[C@H](OC)[C@H](O)[C@@H](C)/C=C(\C)[C@@H]1OC(N)=O)C2=O	380	390	410	970	2.55	2.49	2.37	–	–	–
CO[C@H]1/C=C\C=C(/C)C(=O)NC2=CC(=O)C(NCc3cn(CC4CCCCC4)nn3)=C(C[C@@H](C)C[C@H](OC)[C@H](O)[C@@H](C)/C=C(\C)[C@@H]1OC(N)=O)C2=O	1370	1410	1370	2090	1.53	1.48	1.53	–	–	–
CO[C@H]1/C=C\C=C(/C)C(=O)NC2=CC(=O)C(NCc3cn(Cc4ccc(C(F)(F)F)cc4)nn3)=C(C[C@@H](C)C[C@H](OC)[C@H](O)[C@@H](C)/C=C(\C)[C@@H]1OC(N)=O)C2=O	790	910	800	1240	1.57	1.36	1.55	–	–	–
CO[C@H]1/C=C\C=C(/C)C(=O)NC2=CC(=O)C(NCc3cn(Cc4ccc([N+](=O)[O-])cc4)nn3)=C(C[C@@H](C)C[C@H](OC)[C@H](O)[C@@H](C)/C=C(\C)[C@@H]1OC(N)=O)C2=O	740	740	690	780	1.05	1.05	1.28	–	–	–
CO[C@H]1/C=C\C=C(/C)C(=O)NC2=CC(=O)C(NCc3cn(C4CCCCCC4)nn3)=C(C[C@@H](C)C[C@H](OC)[C@H](O)[C@@H](C)/C=C(\C)[C@@H]1OC(N)=O)C2=O	1030	1120	1050	1700	1.65	1.52	1.62	–	–	–
CCN(CC)CCn1cc(CNC2=C3C[C@@H](C)C[C@H](OC)[C@H](O)[C@@H](C)/C=C(\C)[C@H](OC(N)=O)[C@@H](OC)/C=C\C=C(/C)C(=O)NC(=CC2=O)C3=O)nn1	590	520	510	960	1.63	1.85	1.88	–	–	–
COC1=C2C[C@@H](C)C[C@H](OC)[C@H](O)[C@@H](C)/C=C(\C)[C@H](OC(N)=O)[C@@H](OC)/C=C\C=C(/C)C(=O)NC(=CC1=O)C2=O [GELDANAMYCIN]	–	–	–	1050	–	–	–	580	640	600
